Marks after values point to notes of the source that are not given here.
Key:
[1] = tested on: vascular inflammation in high-glucose and high-fat zebrafish; experiment: Regressive effect on vascular inflammation in high-glucose and high-fat zebrafish (Example 9); assay type: in vivo
Method: Experimental method: 360 tails of 5 dpf macrophage fluorescent zebrafish were randomly selected and placed in beakers with 30 tails in each beaker, compound (1), compound (3), and compound (5) were given intravenously, and the positive control group was given atorvastatin calcium by dissolving it in water at a concentration of 30 μg/mL, while the normal control group (fish farming water-treated zebrafish) and the model control group were set up, and the volume of each beaker (experimental group) was 25 mL. Except for the normal control group, all other groups were given high-lipids and high-sucrose feed by dissolving it in water. Compound (1), compound (3) and compound (5) group were co-treated with high-lipids and high-sucrose feed for 30 h. The treatment was carried out up to 9 dpf, and 10 zebrafish were randomly selected from each experimental group to collect the intensity of the macrophage fluorescence within the tail vein and around the tail vein of the zebrafish under fluorescence microscope, and the results of the statistical analysis were used to evaluate the regressive effect of compound (1), compound (3), compound (5) on zebrafish vascular inflammation in the high sugar and high fat model.

[2] = tested on: vascular endothelial injury induced thrombosis model in zebrafish; experiment: Preventative effect on vascular endothelial injury induced thrombosis, ponatinib zebrafish model (Example 1); assay type: in vivo; conditions: 4.00 ng/tail injected
Method: Experimental method: 420 tails of 5 dpf wild type AB strain zebrafish were randomly selected and placed in a six-well plate, with 30 fish per well (experimental group). The fish were injected with compound (1), compound (2), compound (3), compound (4), compound (5), compound (6), compound (7), compound (8), compound (9), compound (10), and compound (11) (structural formula shown in Table 1) at a dose of 4.00 ng/tail, with positive control drug acetylsalicylic acid being administered by dissolving it in water at a concentration of 30.0 µg/mL. Normal control group (i.e. zebrafish treated with standard diluted water) and model control group were set up, with a capacity of 3 mL per well (experimental group). Except for normal control group, the remaining experimental groups were all given Punatinib by dissolving it in water to induce vascular endothelial injury induced thrombosis model in zebrafish. The zebrafish were stained with o-dianisidine after co-treatment with ponatinib and samples for a period of time under incubation conditions at 28° C.
After staining, 10 zebrafish in each group were randomly selected and photographed under the microscope, and the intensity of cardiac erythrocyte staining in zebrafish was analyzed using NIS-Elements D 3.20 advanced image-processing software, and the samples were evaluated for the preventative effect on vascular endothelial injury induced thrombosis by the statistical results of cardiac erythrocyte staining intensity.
The preventative effect on thrombosis is calculated as follows: […]
Statistical analysis was performed using SPSS software, and p<0.05 indicates significant differences

[3] = tested on: Erastin-induced neuronal cells; experiment: Cell viability (CCK8) of Erastin-induced neuronal cells (Example 8); assay type: cell-based, rat; conditions: Erastin 50 μM
Method: (§1) Experimental method: Primary neuron cells were incubated in a medium containing Erastin (final concentration of 50 μM) for 24 hours, and then incubated in a medium containing different concentrations of the test drug and Erastin (final concentration of 50 μM) for another 24 hours. After incubation, Real time PCR was used to detect mRNA expression of GPX4 in each group of cells, CCK8 assay was used to detect cell viability in each group of cells, C11-BODIPY probe method was used to detect intracellular lipid ROS levels in each group of cells, and PGSK probe method was used to detect iron content in cells.
(§2) The experimental data were expressed in means±SD, and statistical differences between groups were determined using one-way ANOVA and Tukey's test, with p-values less than 0.05 considered significant.
After incubation, the CCK8 experiment was used to detect the cell viability of each group of cells. The results were presented as Mean±SD. Compared with control group, ***p<0.0001. Compared with model control group, ^#P<0.05, ^##P<0.01.

[4] = tested on: lipid ROS levels in Erastin-induced nerve cells; experiment: Lipid ROS levels (C11-BODIPY probe) in Erastin-induced nerve cells (Example 8); assay type: cell-based, rat; conditions: Erastin 50 μM
Method: as §1, §2
After incubation, the C11-BODIPY probe method was used to detect the lipid ROS levels in each group of cells. The results were presented as Mean±SD. Compared with the control group, ***p<0.0001; compared with the model group, #p<0.05, ##p<0.01.

[5] = tested on: iron content in Erastin-induced neuronal cells; experiment: Iron content (PGSK probe) in Erastin-induced neuronal cells (Example 8); assay type: cell-based, rat; conditions: Erastin 50 μM
Method: as §1, §2
After incubation, the PGSK probe method was used to detect the intracellular iron content. The results were presented as Mean±SD. Compared with the control group, ***p<0.0001; Compared with the model group, #p<0.05, ##p<0.01.

[6] = tested on: GPX4 mRNA; experiment: GPX4 mRNA expression (real time PCR) in Erastin-induced neuronal cells (Example 8); assay type: cell-based, rat; conditions: Erastin 50 μM
Method: as §1, §2
After incubation, real time PCR was used to detect the mRNA expression of GPX4 in each group of cells. The results were presented as Mean±SD. Compared with the control group, ***p<0.0001; Compared with the model group, #p<0.05, […].

[7] = tested on: rats with focal cerebral ischemia (MCAO)/reperfusion; experiment: Therapeutic administration, cerebral ischemia-reperfusion injury MCAO/R in rats (Example 7); assay type: in vivo, rat; conditions: 6 mg/kg i.v. once 1 h after reperfusion
Method: Experimental method: SD rats were randomly divided into 11 groups, including pseudosurgery group, a model control group, positive control drug edaravone via intravenous injection (6 mg/kg, i.v.) group, positive control drug butylphthalide injection via intravenous injection (5 mg/kg, i.v.) group, compound (1) high-dose (24 mg/kg, i.v.), medium-dose (12 mg/kg, i.v.), low-dose (6 mg/kg, i.v.) via intravenous injection group, positive drug butylphthalide soft capsule via intragastric administration (60 mg/kg, i.g.) group, and compound via intragastric administration at (1) high-dose (60 mg/kg, i.g.), medium-dose (30 mg/kg, i.g.), low-dose (15 mg/kg, i.g.) group. A middle cerebral artery occlusion (MCAO) model for cerebral ischemia-reperfusion of male rats was prepared using the internal carotid suture-occluded method with an ischemic time of 90 min followed by reperfusion. Injection and oral administration for once were performed 1 h after reperfusion, and neurobehavioral scoring was performed on rats after 24 h to determine neurological function in rats; the cerebral infarction rate and cerebral water content of rats were determined by 2,3,5-triphenyltetrazolium chloride (TTC) staining.

Compound: CC(C)c1c(C(=O)Nc2ccccc2)c(-c2ccccc2)c(-c2ccc(F)cc2)n1CC[C@@H](O)C[C@@H](O)CC(=O)[O-].CC(C)c1c(C(=O)Nc2ccccc2)c(-c2ccccc2)c(-c2ccc(F)cc2)n1CC[C@@H](O)C[C@@H](O)CC(=O)[O-].[Ca+2] [Atorvastatin calcium, atorvastatin calcium, reference compound]
- Anti-inflammatory effect (%) ([1]; 30 μg/mL in water): 42*** %
- Fluorescence intensity of perivascular macrophage (pixels, Mean ± SE) ([1]; 30 μg/mL in water, n = 10): 106352 ± 6663 pixels

Compound: CC(=O)N[C@H](CSCC1OC2OC3C(CSC[C@@H](NC(C)=O)C(=O)[O-])OC(OC4C(CSC[C@@H](NC(C)=O)C(=O)[O-])OC(OC5C(CSC[C@@H](NC(C)=O)C(=O)[O-])OC(OC6C(CSC[C@@H](NC(C)=O)C(=O)[O-])OC(OC7C(CSC[C@@H](NC(C)=O)C(=O)[O-])OC(OC8C(CSC[C@@H](NC(C)=O)C(=O)[O-])OC(OC1C(O)C2O)C(O)C8O)C(O)C7O)C(O)C6O)C(O)C5O)C(O)C4O)C(O)C3O)C(=O)[O-].[Na+].[Na+].[Na+].[Na+].[Na+].[Na+].[Na+] (some centres unmarked) [Compound (5)]
- Preventative effect on thrombosis (%) [2]: 64%
- Cardiac erythrocyte staining intensity (pixels, mean ± SE) ([2]; n = 10): 4340 ± 255 pixels
- Cardiac erythrocyte staining intensity (pixels, mean ± SE) ([2]; n = 10, listed as compound (5)): 4340 pixels
- Cell viability (%) ([3]; 1 μM, 24 h, control = 100, Mean±SD): 58.95 ± 7.21%
- Cell viability (%) ([3]; 2.5 μM): 62.63 ± 7.82%
- Cell viability (%) ([3]; 5 μM): 67.38 ± 6.73%
- Cell viability (%) ([3]; 10 μM): 73.74 ± 7.33^# %
- Cell viability (%) ([3]; 20 μM): 79.85 ± 6.34^## %
- Cell viability (%) ([3]; 40 μM): 84.2 ± 4.71^## %
- Lipid ROS levels (%) ([4]; 1 μM, control = 100, Mean±SD): 145.89 ± 5.33%
- Lipid ROS levels (%) ([4]; 2.5 μM): 141.47 ± 6.53%
- Lipid ROS levels (%) ([4]; 5 μM): 133.09 ± 9.69%
- Lipid ROS levels (%) ([4]; 10 μM): 128.99 ± 9.84^# %
- Lipid ROS levels (%) ([4]; 20 μM): 122.71 ± 8.5^## %
- Lipid ROS levels (%) ([4]; 40 μM): 114.82 ± 7.13^## %
- Iron content (PGSK probe) ([5]; 1 μM, control = 100, PGSK fluorescence, weaker = more iron): 56.75 ± 9.31^
- Iron content (PGSK probe) ([5]; 2.5 μM): 68.32 ± 6.01^
- Iron content (PGSK probe) ([5]; 5 μM): 72.65 ± 7
- Iron content (PGSK probe) ([5]; 10 μM): 76.52 ± 7.86^#
- Iron content (PGSK probe) ([5]; 20 μM): 80.28 ± 6.96^##
- Iron content (PGSK probe) ([5]; 40 μM): 87.37 ± 9.57^##
- Expression of GPX4 mRNA ([6]; 1 μM, control about 1.00, Mean±SD): 0.4777 ± 0.07^
- Expression of GPX4 mRNA ([6]; 2.5 μM): 0.5373 ± 0.08^
- Expression of GPX4 mRNA ([6]; 5 μM): 0.6033 ± 0.06^#
- Expression of GPX4 mRNA ([6]; 10 μM): 0.6942 ± 0.01^##
- Expression of GPX4 mRNA ([6]; 20 μM): 0.7693 ± 0.1^##
- Expression of GPX4 mRNA ([6]; 40 μM): 0.8368 ± 0.07^##
- Anti-inflammatory effect (%) ([1]; 27.8 ng/tail intravenous): 38*** %
- Fluorescence intensity of perivascular macrophage (pixels, Mean ± SE) ([1]; 27.8 ng/tail intravenous): 113678 ± 4811 pixels
- Anti-inflammatory effect (%) ([1]; 83.3 ng/tail intravenous): 36*** %
- Fluorescence intensity of perivascular macrophage (pixels, Mean ± SE) ([1]; 83.3 ng/tail intravenous): 118039 ± 9198 pixels
- Anti-inflammatory effect (%) ([1]; 250 ng/tail intravenous): 37*** %
- Fluorescence intensity of perivascular macrophage (pixels, Mean ± SE) ([1]; 250 ng/tail intravenous): 115627 ± 5934 pixels

Compound: CC1=NN(c2ccccc2)C(=O)C1 [Edaravone, edaravone, reference compound]
- Behavioral score [7]: 1.62 ± 0.51
- Cerebral water content (%) [7]: 79.81 ± 1.03 %
- Cerebral infarction rate (%) ([7]; after 24 h, mean ± SD, n = 8): 10.23 ± 7.87 %

Reference: patent US20250064886A1, “CARDIOVASCULAR AND CEREBROVASCULAR DRUG AND USE THEREOF” (HANGZHOU ADAMERCK PHARMLABS INC., priority 2021, published 2025)
